Results published in US9936700B2, “Substituted quinoxaline derivatives as pest control agent” (BAYER CROPSCIENCE AKTIENGESELLSCHAFT, priority 2013, dated 2018).
Read-outs that look alike come from different tables or passages of the source. One block for each compound: values may come before it.

Legend:
[1] = test system: Cooperia curticei; assay: Cooperia curticei test (COOPCU); assay type: in vivo; settings: after 5 days
Protocol: Cooperia curticei test (COOPCU)
• Solvent: dimethyl sulfoxide
To produce a suitable preparation of active compound, 10 mg of active compound are mixed with 0.5 ml of dimethyl sulfoxide and the concentrate is diluted with “Ringer's solution” to the desired concentration.
Vessels containing the active compound preparation of the desired concentration are populated with about 40 nematode larvae (Cooperia curticei).
After 5 days, the kill in % is determined. 100% means that all the larvae have been killed; 0% means that none of the larvae have been killed.

[2] = log P by reversed-phase HPLC (EEC Directive 79/831 Annex V.A8); assay type: physicochemical; settings: for chromatographic logP: reversed-phase C18 HPLC column
Text: NMR data and log P values: log P (HCOOH)=log P[a] log P (neutral)=log P[b]
^[a] […] Called log P (HCOOH) in the table.
^[b] […] Called log P (neutral) in the table.

[3] = test system: Aphis gossypii; assay: Aphis gossypii spray test; assay type: in vivo; settings: cotton plants, after 6 days
Protocol: Aphis gossypii—spray test
(§1) • Solvent: 7 parts by weight of dimethylformamide • Emulsifier: alkylaryl polyglycol ether
(§2) To produce further test concentrations, the preparation is diluted with emulsifier-containing water. If the addition of ammonium salts or/and penetrants is required, these are each added in a concentration of 1000 ppm to the formulation solution.
After 6 days, the kill in % is determined. 100% means that all the aphids have been killed; 0% means that no aphids have been killed.

[4] = test system: Myzus persicae; assay: Myzus persicae spray test (MYZUPE); assay type: in vivo; settings: Chinese cabbage leaf discs, after 6 days
Protocol: Myzus persicae—spray test (MYZUPE)
• Solvent: 78 parts by weight of acetone • 1.5 parts by weight of dimethylformamide • Emulsifier: 0.5 part by weight of alkylaryl polyglycol ether
After 6 days, the efficacy in % is determined. 100% means that all the aphids have been killed; 0% means that no aphids have been killed.

[5] = test system: Haemonchus contortus; assay: Haemonchus contortus test (HAEMCO); assay type: in vivo; settings: after 5 days
Text: Haemonchus contortus-test ([…]) • Solvent: dimethyl sulfoxide […] Vessels containing the active compound preparation of the desired concentration are populated with about 40 larvae of the red stomach worm (Haemonchus contortus).

[6] = test system: Nilaparvata lugens; assay: Nilaparvata lugens spray test (solvent dimethylformamide, 7 days); assay type: in vivo; settings: rice plants, after 7 days
Protocol: (§3) Nilaparvata lugens—spray test
If the addition of ammonium salts or/and penetrants is required, these are each added in a concentration of 1000 ppm to the formulation solution.
After 7 days, the efficacy in % is determined.

[7] = test system: Tetranychus urticae; assay: Tetranychus urticae spray test, OP-resistant (TETRUR); assay type: in vivo; settings: 500 g/ha, bean leaf discs, after 6 days
Protocol: Tetranychus urticae—spray test, OP-resistant (TETRUR)
(§4) • Solvent: 78.0 parts by weight of acetone • 1.5 parts by weight of dimethylformamide • Emulsifier: 0.5 part by weight of alkylaryl polyglycol ether
After 6 days, the efficacy in % is determined. 100% means that all the spider mites have been killed; 0% means that no spider mites have been killed.

[8] = test system: Nephotettix cincticeps; assay: Nephotettix cincticeps test (NEPHCI); assay type: in vivo; settings: 100 ppm, rice plants, after 14 days
Protocol: Nephotettix cincticeps test (NEPHCI)
In the event that addition of ammonium salts or/and penetrants (rapeseed oil methyl ester) is required, these are each pipetted in a concentration of 1000 ppm after the finished formulation solution has been diluted.
After 14 days, the kill in % is determined. 100% means that all leafhoppers have been killed; 0% means that none of the leafhoppers have been killed.

[9] = test system: Boophilus microplus; assay: Boophilus microplus test (BOOPMI injection); assay type: in vivo; settings: 20 μg/animal, injection into the abdomen, after 7 days
Protocol: Boophilus microplus test (BOOPMI injection) • Solvent: dimethyl sulfoxide To produce a suitable preparation of active compound, 10 mg of active compound are mixed with 0.5 ml of solvent and the concentrate is diluted with solvent to the desired concentration. The active compound solution is injected into the abdomen (Boophilus microplus), and the animals are transferred into dishes and stored in a climate-controlled room. Efficacy is assessed after 7 days by laying of fertile eggs. Eggs which are not visibly fertile are stored in a climate-controlled cabinet until the larvae hatch after about 42 days.

[10] = test system: Bemisia tabaci; assay: Bemisia tabaci spray test; assay type: in vivo; settings: cotton plants, after 8 days
Protocol: Bemisia Tabaci—Spray Test
as §1, §2
After 8 days, the efficacy in % is determined. 100% means that all the whiteflies have been killed; 0% means that none of the whiteflies have been killed.

[11] = test system: Phaedon cochleariae; assay: Phaedon cochleariae spray test (PHAECO); assay type: in vivo; settings: 500 g/ha, Chinese cabbage leaf discs, after 7 days
Protocol: Phaedon cochleariae—spray test (PHAECO)
as §4
After 7 days, the efficacy in % is determined. 100% means that all the beetle larvae have been killed; 0% means that no beetle larvae have been killed.

[12] = test system: Spodoptera frugiperda; assay: Spodoptera frugiperda spray test (SPODFR); assay type: in vivo; settings: 500 g/ha, maize leaf discs, after 7 days
Protocol: Spodoptera frugiperda—spray test (SPODFR)
• Solvent: 78.0 parts by weight of acetone • 1.5 parts by weight of dimethylformamide • Emulsifier: 0.5 parts by weight of alkylaryl polyglycol ether
After 7 days, the efficacy in % is determined. 100% means that all the caterpillars have been killed; 0% means that no caterpillars have been killed.

[13] = test system: Nippostrongylus brasiliensis; settings: 10 ppm, adult worms, 37° C., OD at 405 nm versus negative control
[14] = test system: Nilaparvata lugens; settings: 500 g/ha, rice plants, after 4 days
Protocol: as §3
• Solvent: 52.5 parts by weight of acetone • 7 parts by weight of dimethylformamide • Emulsifier: alkylaryl polyglycol ether
To produce further test concentrations, the preparation is diluted with emulsifier-containing water.
After 4 days, the efficacy in % is determined. 100% means that all of the planthoppers have been killed; 0% means that none of the planthoppers have been killed.

[15] = test system: Meloidogyne incognita; settings: 20 ppm, lettuce, after 14 days
Protocol: Meloidogvne incognita test (MELGIN)
• Solvent: 125.0 parts by weight of acetone
The lettuce seeds germinate and the plants develop. The galls develop on the roots.
After 14 days, the nematicidal efficacy in % is determined by the formation of galls.

[16] = acidic range, pH 2.7, 0.1% aqueous formic acid/acetonitrile
[17] = neutral range, pH 7.8, aqueous ammonium hydrogencarbonate/acetonitrile
[18] = acidic range, pH 2.7, 0.1% aqueous formic acid/acetonitrile, read-out: logP [a] = log P (HCOOH)
[19] = neutral range, pH 7.8, aqueous ammonium hydrogencarbonate/acetonitrile, read-out: logP [b] = log P (neutral)

Structure (SMILES): Clc1ccc2nc(-c3cccnc3)cnc2c1 [Example I-40]
efficacy (kill of larvae) ([1]; 20 ppm): 90% | logP [a] = log P (HCOOH) [2, 16]: 2.01 | logP [b] = log P (neutral) [2, 17]: 2.43

Structure (SMILES): Cc1cnccc1-c1cnc2cc3c(cc2n1)OC(F)(F)O3 [Example I-32]
efficacy (kill of larvae) ([1]; 20 ppm): 80% | efficacy (kill of aphids) ([3]; 100 ppm): 90% | logP [a] = log P (HCOOH) ([2]; pH 2.7): 1.99 | logP [b] = log P (neutral) ([2]; pH 7.8): 2.85 | efficacy (aphids killed) ([4]; 500 g/ha): 90% | efficacy (kill of larvae) ([5]; 20 ppm): 80%

Structure (SMILES): CCc1cnccc1-c1cnc2cc3c(cc2n1)OC(F)(F)O3 [Example I-1, 6-(3-Ethylpyridin-4-yl)-2,2-difluoro[1,3]dioxolo[4,5-g]quinoxaline]
efficacy (kill of aphids) ([3]; 20 ppm): 85% | chromatographic logP [2, 18]: 2.34 | chromatographic logP [2, 19]: 3.23 | efficacy (planthoppers killed) ([6]; 20 ppm): 100% | efficacy (aphids killed) ([4]; 500 g/ha): 90% | efficacy (spider mites killed) [7]: 100%

Structure (SMILES): CCSc1ccccc1-c1cnc2cc3c(cc2n1)OC(F)(F)O3 [Example I-34]
logP [a] = log P (HCOOH) ([2]; pH 2.7): 4.73 | efficacy (beetle larvae killed) [11]: 100% | efficacy (spider mites killed) [7]: 90%

Structure (SMILES): FC(F)(F)c1ccc2ncc(-c3ccncc3)nc2c1 [Example I-9]
efficacy (kill of larvae) ([1]; 100 ppm): 100% | efficacy (kill of aphids) ([3]; 100 ppm): 85% | efficacy (category of AChE inhibition) [13]: 100% (100% (>84-100% inhibition)) | logP [a] = log P (HCOOH) [2, 16]: 2.13 | logP [b] = log P (neutral) [2, 17]: 2.75 | efficacy (aphids killed) ([4]; 500 g/ha): 90% | efficacy (beetle larvae killed) [11]: 100% | efficacy (kill of larvae) ([5]; 100 ppm): 100%

Structure (SMILES): CCS(=O)(=O)c1ccccc1-c1cnc2cc(Cl)ccc2n1 [Example I-29]
efficacy (caterpillars killed) [12]: 83% | logP [a] = log P (HCOOH) ([2]; pH 2.7): 2.81 | logP [b] = log P (neutral) ([2]; pH 7.8): 2.82

Structure (SMILES): Cc1cnccc1-c1cnc2ccc(C(F)(F)F)cc2n1 [Example I-30]
efficacy (kill of aphids) ([3]; 100 ppm): 100% | logP [a] = log P (HCOOH) ([2]; pH 2.7): 2.12 | logP [b] = log P (neutral) ([2]; pH 7.8): 2.89 | efficacy (planthoppers killed) ([6]; 100 ppm): 80% | efficacy (whiteflies killed) ([10]; 100 ppm): 100%

Structure (SMILES): FC(F)(F)c1ccc2nc(-c3ccncc3)cnc2c1 [Example I-7]
efficacy (laying of fertile eggs) [9]: 80% | logP [a] = log P (HCOOH) [2, 16]: 2.17 | logP [b] = log P (neutral) [2, 17]: 2.75 | efficacy (planthoppers killed) [14]: 90% | efficacy (aphids killed) ([4]; 500 g/ha): 90% | efficacy (beetle larvae killed) [11]: 100% | efficacy (whiteflies killed) ([10]; 100 ppm): 100% | nematicidal efficacy (formation of galls) [15]: 90%

Structure (SMILES): FC(F)(F)c1ccc2nc(-c3cccnc3)cnc2c1 [Example I-8]
efficacy (kill of larvae) ([1]; 100 ppm): 100% | efficacy (category of AChE inhibition) [13]: 84% (84% (60-84% inhibition)) | logP [a] = log P (HCOOH) [2, 16]: 2.46 | efficacy (kill of larvae) ([5]; 100 ppm): 100%

Structure (SMILES): FC1(F)Oc2cc3ncc(-c4ccncc4)nc3cc2O1 [Example I-74]
logP [a] = log P (HCOOH) [2, 16]: 1.98 | nematicidal efficacy (formation of galls) [15]: 90%

Structure (SMILES): FC1(F)Oc2cc3nc(Cl)c(-c4ccc(Cl)cc4)nc3cc2O1 [Example I-4, 6-Chloro-7-(4-chlorophenyl)-2,2-difluoro[1,3]dioxolo[4,5-g]quinoxaline]
chromatographic logP [2, 18]: 5.27 | efficacy (kill of larvae) ([5]; 20 ppm): 80%

More lines, main results first:

chromatographic logP [2, 18]: 2.14 | chromatographic logP [2, 19]: 2.89
Structure (SMILES): Cc1cnccc1-c1cnc2cc(C(F)(F)F)ccc2n1 [Example I-2, 2-(3-Methylpyridin-4-yl)-6-(trifluoromethyl)quinoxaline]
efficacy (kill of leafhoppers) [8]: 100% | efficacy (kill of aphids) ([3]; 100 ppm): 80% | efficacy (laying of fertile eggs) [9]: 85% | efficacy (planthoppers killed) ([6]; 20 ppm): 100% | efficacy (aphids killed) ([4]; 750 g/ha): 90% | efficacy (whiteflies killed) ([10]; 20 ppm): 100%

logP [a] = log P (HCOOH) ([2]; pH 2.7): 4.79
Structure (SMILES): CCSc1ccccc1-c1cnc2ccc(C(F)(F)F)cc2n1 [Example I-36]
efficacy (laying of fertile eggs) [9]: 90% | efficacy (aphids killed) ([4]; 500 g/ha): 90% | efficacy (beetle larvae killed) [11]: 83% | efficacy (spider mites killed) [7]: 90%

logP [a] = log P (HCOOH) ([2]; pH 2.7): 4.80 | logP [b] = log P (neutral) ([2]; pH 7.8): 4.78
Structure (SMILES): CCSc1ccccc1-c1cnc2cc(C(F)(F)F)ccc2n1 [Example I-14]
efficacy (caterpillars killed) [12]: 100% | efficacy (beetle larvae killed) [11]: 100% | efficacy (spider mites killed) [7]: 100%

logP [a] = log P (HCOOH) ([2]; pH 2.7): 2.59
Structure (SMILES): COc1cnccc1-c1cnc2cc(C(F)(F)F)ccc2n1 [Example I-11]
efficacy (kill of aphids) ([3]; 100 ppm): 100% | efficacy (planthoppers killed) ([6]; 100 ppm): 90% | efficacy (aphids killed) ([4]; 750 g/ha): 90% | efficacy (whiteflies killed) ([10]; 100 ppm): 100%

logP [a] = log P (HCOOH) ([2]; pH 2.7): 2.53 | logP [b] = log P (neutral) ([2]; pH 7.8): 3.28
Structure (SMILES): CCc1cnccc1-c1cnc2cc(C(F)(F)F)ccc2n1 [Example I-26]
efficacy (planthoppers killed) ([6]; 100 ppm): 80% | efficacy (whiteflies killed) ([10]; 100 ppm): 96% | efficacy (spider mites killed) [7]: 90%

logP [a] = log P (HCOOH) ([2]; pH 2.7): 2.79 | logP [b] = log P (neutral) ([2]; pH 7.8): 2.78
Structure (SMILES): CC[S+]([O-])c1ccccc1-c1cnc2cc(C(F)(F)F)ccc2n1 (stereo not drawn) [Example I-15]
efficacy (caterpillars killed) [12]: 100% | efficacy (beetle larvae killed) [11]: 83% | efficacy (whiteflies killed) ([10]; 100 ppm): 90% | efficacy (spider mites killed) [7]: 100%
